Where two headings read alike, the source gives them in different places.
Assays:
[1] = test system: epimastigotes of T. cruzi (Tulahuen 2 strain); experiment: Anti-T. cruzi test in vitro (epimastigote growth inhibition); assay type: cell-based, Trypanosoma cruzi; details: for IC50: Trypanosoma cruzi, read-out: IC50 against T. cruzi; for SI (selectivity index): macrophages (J774.1) vs T. cruzi epimastigotes
Procedure: (§1) To evaluate the anti-trypanosomal activity of the synthesized 3H-[1,2]dithioles we used T. cruzi, Tulahuen 2 strain (discrete typing unit, DTU, TcVI [18]) in the epimastigote form. […] To establish the selectivity of the compounds against the parasite, unspecific cytotoxicity against mammalian cells (J774.1 murine macrophages) was studied for the most relevant derivatives. The selectivity indexes (SI) were also determined (Table 1).
We used epimastigotes of the Tulahuen 2 strain (DTU, Tc VI) growing in an axenic milieu (BHI-Tryptose). Cells from a 5–7-day-old culture were inoculated in fresh culture milieu to give an initial concentration of 1 × 10^6 cells/mL. The absorbance at 600 nm of the cells in culture was measured every day. At day 5, the milieu was inoculated with different quantities of the compounds from a stock solution in DMSO (DMSO concentration in the culture milieu never exceeded 0.4%). The control was made in the presence of 0.4% DMSO and in the absence of compounds. […] At day 5, the absorbance of the culture was measured and related to the control. The IC50 value was taken as the concentration of drug needed to reduce the absorbance ratio to 50%.

[2] = test system: J774.1 murine macrophages; experiment: Unspecific in vitro cytotoxicity of mammalian cells (MTT); assay type: cell-based; details: Mus musculus, 48 h exposure, read-out: IC50 against Macrophages
Procedure: as §1
J774.1 murine macrophage cells (ATCC, Manassas, VA, USA) were grown in DMEM culture milieu containing 4 mM L-glutamine and supplemented with 10% heat-inactivated fetal calf serum. […] Afterwards, cells were exposed for 48 h to the compounds (25–400 μM) or vehicle for control (0.4% DMSO), and additional controls (cells in medium) were used in each test. Cell viability was then assessed by measuring the mitochondria-dependent reduction of MTT (3-(4,5-dimethylthiazol-2-yl)-2,5-diphenyltetrazolium bromide) to formazan. For this purpose, MTT in sterile PBS (0.2% glucose) pH 7.4 was added to the macrophages to achieve a final concentration of 0.1 mg/mL and the cells were incubated at 37 °C for 3 h. After removing the medium, formazan crystals were dissolved in 180 μL of DMSO and 20 μL of MTT buffer (0.1 M glycine, 0.1 M NaCl, 0.5 mM EDTA, pH 10.5) and the absorbance at 560 nm was measured. The IC50 was defined as the drug concentration at which 50% of the cells were viable, relative to the control (no drug added), and was determined by analysis using OriginLab8.5® sigmoidal regression (% of viable cells vs. logarithm of the compound concentration). Samples were performed in triplicate.

[3] = biological target: T1, Trypanosoma cruzi triosephosphate isomerase (TcTIM) (Trypanosoma cruzi, UniProt P52270); experiment: Inhibition of enzymatic activity of TcTIM; assay type: biochemical; details: for IC50: isolated enzyme, 2 h incubation at 36 °C; for inhibition at 25 µM: read-out: TcTIM % Inhib25; for inhibition at 200 µM: read-out: TcTIM % Inhib200
T1 construct: made in house; host or cells: Escherichia coli
Procedure: In order to investigate if the 3H-[1,2]dithioles inhibit TcTIM, we initially tested the inhibitory capacity of the compounds at a concentration of 200 μM and then at 25 μM.
Expression and purification of protein: TcTIM was expressed in Escherichia coli and purified as described in the literature. After purification, the enzyme, dissolved in 100 mM triethanolamine, 10 mM EDTA and 1 mM dithiothreitol (pH 8), was precipitated with ammonium sulfate (75% saturation) and stored at 4 °C. Before use, extensive dialysis against 100 mM triethanolamine/10 mM EDTA (pH 7.4) was performed. Protein concentration was determined by absorbance at 280 nm (ε = 36,440 M^−1·cm^−1).
Enzymatic activity assays. Enzymatic activity was determined following the conversion of glyceraldehyde 3-phosphate into dihydroxyacetone phosphate. The decrease in absorbance at 340 nm was followed in a multicell Cary spectrophotometer at 25 °C. The reaction mixture (1 mL, pH 7.4) contained 100 mM triethanolamine, 10 mM EDTA, 0.2 mM NADH, 1 mM glyceraldehyde 3-phosphate, and 0.9 units of α-glycerol phosphate dehydrogenase. The reaction was initiated by addition of 5 ng/mL of the TcTIM.
For inactivation studies, TcTIM was incubated at a concentration of 5 mg/mL in a buffer containing 100 mM triethanolamine, 10 mM EDTA, pH 7.4 and 10% of DMSO at 36 °C. The mixture also contained the compounds at the indicated concentrations. Compounds were dissolved in DMSO. After 2 h, […] was withdrawn and added to 1 mL of reaction mixture for the activity assay. None of the molecules tested here affected the activity of α-glycerol phosphate dehydrogenase, the enzyme used for trapping the product.
The IC50 value was taken as the concentration of drug needed to reduce the enzymatic activity to 50%. The experiments were performed in triplicate.

cruzipain [4] = biological target: T2, cruzipain (Trypanosoma cruzi, UniProt P25779); experiment: Inhibition of T. cruzi cruzipain (Z-Phe-Arg-AMC fluorogenic substrate); assay type: biochemical; details: read-out: Cruzipain % Inhib100
T2 construct: endogenous in cells; host or cells: T. cruzi epimastigotes, Tulahuen 2 strain
Procedure: Initially, we tested the dithioles as inhibitors of the protease cruzipain from T. cruzi at a concentration of 100 μM.
Cruzipain was purified to homogeneity from epimastigotes of the Tulahuen 2 strain by ConA-Sepharose affinity chromatography, as previously described. Cruzipain (2.5 μM ε = 58,285 M^−1·cm^−1) was incubated in 50 mM acetate buffer pH 5.5 with 50 mM DTT and 100 μM inhibitor was added, shaking the solution for 15 min at 27 °C. The derivatives were added diluted in DMSO, and the controls contained the same solvent concentration. The concentration of DMSO never exceeded 1% in the reaction medium. E-64 was used as a positive control of inhibition. Then, the fluorogenic substrate Z-Phe-Arg-AMC (100 μM) was added and the fluorescence was measured during 10 min at intervals of 3 s (excitation at 350 nm and emission at 460 nm) using a Varioskan Flash Spectrophotometer. From the slope of the negative control, we calculated the total (100%) enzyme activity, while the slopes obtained in the presence of the compounds yielded the percentage of remaining enzyme activity. The percentage of enzyme inhibition was determined as […]. The experiments were done in duplicate.

cruzipain [5] = biological target: T2, cruzipain; experiment: as above; assay type: biochemical; details: isolated enzyme
[6] = epimastigotes, Tulahuen 2 strain, triplicate
[7] = percentage of enzymatic inhibition at 25 μM
[8] = percentage of enzymatic inhibition at 200 μM
[9] = percentage of enzymatic inhibition at 100 μM

T1 sequence (P52270 whole entry): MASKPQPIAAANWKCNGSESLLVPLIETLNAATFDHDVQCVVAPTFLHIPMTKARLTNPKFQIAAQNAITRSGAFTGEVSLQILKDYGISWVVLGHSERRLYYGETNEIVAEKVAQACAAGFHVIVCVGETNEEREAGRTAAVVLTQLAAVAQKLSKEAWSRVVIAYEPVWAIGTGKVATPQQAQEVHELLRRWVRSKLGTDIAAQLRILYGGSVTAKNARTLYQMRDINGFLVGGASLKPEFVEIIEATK
T2 sequence (P25779 123-467): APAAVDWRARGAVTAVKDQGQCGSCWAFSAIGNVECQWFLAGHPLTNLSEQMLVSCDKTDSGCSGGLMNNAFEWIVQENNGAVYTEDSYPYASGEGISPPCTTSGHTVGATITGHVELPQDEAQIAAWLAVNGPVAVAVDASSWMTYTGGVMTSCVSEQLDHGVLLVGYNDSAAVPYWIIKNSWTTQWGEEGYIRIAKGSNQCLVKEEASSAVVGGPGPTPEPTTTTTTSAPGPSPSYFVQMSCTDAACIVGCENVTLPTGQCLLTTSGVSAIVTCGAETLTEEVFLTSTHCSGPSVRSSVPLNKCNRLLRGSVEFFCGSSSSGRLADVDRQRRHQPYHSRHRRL

Structure (SMILES)	IC50 [1, 6] [µM]	IC50 [3] [µM]	inhibition at 25 µM [3, 7] [%]	inhibition at 200 µM [3, 8] [%]	inhibition at 100 µM (cruzipain [4]; [9]) [%]	IC50 (cruzipain [5]) [µM]	also measured
O=C(CS/C(C(=O)c1ccccc1)=C1\C=C(c2ccc(O)cc2)SS1)c1ccccc1 [Derivative 13]	5.5 ± 0.9	3.35 ± 0.14	75 ± 6	86	61 ± 0.3		SI (selectivity index) [1]: 6.2; IC50 [2]: 34 ± 0.5 µM
O=C(/C=C/c1ccc(C(=O)Oc2ccc(-c3cc(=S)ss3)cc2)cc1)c1ccccc1 [Derivative 8]	> 25				58 ± 0.1		
Oc1ccc(-c2cc(=S)ss2)cc1 [Derivative 6]	25 ± 1		35 ± 3	71	59.3 ± 0.3		SI (selectivity index) [1]: 2.0; IC50 [2]: 51 ± 2 µM
CC(=O)COc1ccc(-c2cc(=S)ss2)cc1 [Derivative 10]	> 25		61 ± 1	70	73.9 ± 0.1		
O=C(Cc1ccccc1)Oc1ccc(-c2cc(=S)ss2)cc1 [Derivative 1]							IC50 ([1]; TULAHUEN): > 25 µM; inhibition at 25 µM [3]: 33 ± 1.9%; inhibition at 200 µM [3]: 77%; inhibition at 100 µM (cruzipain [4]): 21.3 ± 0.3%
COc1ccc(-c2cc(=[S+]CC(=O)c3ccc4ccccc4c3)ss2)cc1 [Derivative 21]	> 25			65	90.2 ± 0.6	17.7 ± 3.9	
COc1ccc(-c2cc(=[S+]CC(=O)c3ccccc3)ss2)cc1 [Derivative 20]	> 25				72 ± 0.1		
O=C(Oc1ccc(-c2cc(=S)ss2)cc1)c1ccc(/C=C/C(=O)c2ccccc2O)cc1 [Derivative 9]	25 ± 0.5			50	77.9 ± 0.6		SI (selectivity index) [1]: 2.5; IC50 [2]: 63 ± 2 µM
COc1ccc(C2=C/C(=C(\SCC(=O)c3ccccc3)C(=O)c3ccccc3)SS2)cc1 [Derivative 16]	> 25	7.53 ± 0.1	63 ± 0.1	77	62.3 ± 0.3		
COc1ccc(-c2cc(=S)ss2)cc1 [Derivative 5]	> 25	1.2 ± 0.05	80 ± 2.3	86	89 ± 0.5	4 ± 2	IC50 against T. cruzi [1, 6]: inactive
O=C(COc1ccc(-c2cc(=S)ss2)cc1)c1ccc2ccccc2c1 [Derivative 12]	> 25			70	91.5 ± 0.6	21.6 ± 6.1	TcTIM % Inhib25 [3, 7]: ni ^d
O=C(C[S+]=c1cc(-c2ccc(O)cc2)ss1)c1ccc2ccccc2c1 [Derivative 18]	> 25	11.03 ± 0.03	75 ± 0.3	70	77.1 ± 0.1		
COc1ccc(C2=C/C(=C(\SCC(=O)c3ccc4ccccc4c3)C(=O)c3ccc4ccccc4c3)SS2)cc1 [Derivative 17]	> 25		52 ± 2.5	81	82.6 ± 0.6		
O=C(/C=C/c1ccccc1)Oc1ccc(-c2cc(=S)ss2)cc1 [Derivative 7]	> 25			14	78.4 ± 0.6		
O=C(COc1ccc(-c2cc(=S)ss2)cc1)c1ccccc1 [Derivative 11]	> 25				96.3 ± 0.7	17.1 ± 3.6	
COc1ccc(-c2cc(=[S+]CC(C)=O)ss2)cc1 [Derivative 19]	> 25	3.26 ± 0.05	73 ± 3.2	95	90.5 ± 0.7	11.3 ± 0.6	IC50 against T. cruzi [1, 6]: inactive

Reference: publication PMC6332334, “3-H-[1,2]Dithiole as a New Anti-Trypanosoma cruzi Chemotype: Biological and Mechanism of Action Studies” (Molecules, 2015)
